Legend:
[1] = system: streptomycin resistant S. aureus type 5 (SA5); experiment: Mouse nasal colonization model, S. aureus preincubated with MAb before instillation; type: in vivo, mice
Description: Kiser et al. developed a staphylococcal nasal colonization model in mice to study staphylococcal factors that influence nasal colonization (30). […] Briefly, streptomycin resistant S. aureus type 5 was grown on high salt Columbia agar to promote capsule formation. The bacteria were washed with sterile saline to remove media components and resuspended at ˜10^8 organisms/animal dose in saline containing various concentrations and combinations of anti-staphylococcal or irrelevant control MAbs. Following a preincubation of 1 hr, the bacteria were repelleted and resuspended in a final volume of 10 μl per animal dose in either saline or saline containing antibody. Mice that have been maintained on streptomycin-containing water for 24 hrs were sedated with anesthesia. Staphylococci were instilled in the nares of the mice by pipetting without contact with the nose.
Generally, following four to seven days during which the animals were maintained on streptomycin-containing water, the animals were sacrificed and the noses removed surgically and dissected. Nasal tissue was vortexed vigorously in saline plus 0.5% Tween-20 to release adherent bacteria, and the saline was plated on Columbia blood agar and tryptic soy agar containing streptomycin to determine colonization.
According to this procedure, streptomycin-resistant S. aureus type 5 (SA5, 1 to 3×10^8/mouse) was preincubated for 1 hr in saline or saline containing A110 (2-3 mg purified IgG/mouse dose of 1-3×10^8 bacteria). Following preincubation, the bacteria were pelleted and resuspended in saline or in saline containing A110 (10 μl/mouse dose). Ten mice each were intranasally instilled with SA5 in saline or SA5 in A110. Table 4 tabulates three experiments showing that nasal application of A110 in PBS blocks and alleviates staphylococcal nasal colonization.

[2] = system: S. aureus strain MBT 5040; experiment: Minimal inhibitory concentration (MIC); type: cell-based; conditions: Staphylococcus aureus; S. aureus MBT 5040, clinical MRSA strain
[3] = Table 5: 2 × 10^8 SA5 instilled with MAb, 2 mg/mouse dose

Row | Molecule | Effect on staphylococcal nasal colonization in mice ([1]; MAb in saline, Table 5 experiment) | Average number of colonies recovered per mouse [1, 3] | Number of mice colonized [1, 3] | MIC [2] [µg/mL]
1 | Medi 493: irrelevant control, chimeric IgG1 MAb against RSV (MedImmune) | no effect | 137 | 9/9 | 
2 | COc1cccc(OC)c1C(=O)N[C@@H]1C(=O)N2[C@@H]1SC(C)(C)[C@@H]2C(=O)O [methicillin] |  |  |  | > 36

Source: patent US20030224000A1, “Methods for blocking or alleviating staphylococcal nasal colonization by intranasal application of monoclonal antibodies” (priority 2001, published 2003)
